Test results published in ChEMBL document CHEMBL1201862, “PubChem BioAssay data set” (2004).
The source made the active and inactive calls.

How the values were obtained:
[1] = viability of uninfected HEp-2 cells – cell-based, HTS, cytotoxicity control for RSV inhibitor project, dose response (AID 2410); format: functional; settings: human respiratory syncytial virus
[2] = tested on: Streptococcus sp. 'group A'; experiment: Streptococcus pyogenes SK(-)GAS viability under kanamycin – luminescence, BacTiterGlo, confirmation, counter-screen for streptokinase expression inhibitor project, dose response (AID 1900); format: functional, organism-based
Streptokinase A = molecular target: T1, Streptokinase A (Streptococcus pyogenes serotype M1, UniProt P10520); experiment: viability-normalized secreted streptokinase activity reduction – plasminogen activation absorbance, OD405, dose response (AID 1914); format: functional, Streptococcus pyogenes M1 GAS;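 note: secreted streptokinase activity via plasminogen activation per viability signal from cell pellet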
T1 sequence (P10520 whole entry): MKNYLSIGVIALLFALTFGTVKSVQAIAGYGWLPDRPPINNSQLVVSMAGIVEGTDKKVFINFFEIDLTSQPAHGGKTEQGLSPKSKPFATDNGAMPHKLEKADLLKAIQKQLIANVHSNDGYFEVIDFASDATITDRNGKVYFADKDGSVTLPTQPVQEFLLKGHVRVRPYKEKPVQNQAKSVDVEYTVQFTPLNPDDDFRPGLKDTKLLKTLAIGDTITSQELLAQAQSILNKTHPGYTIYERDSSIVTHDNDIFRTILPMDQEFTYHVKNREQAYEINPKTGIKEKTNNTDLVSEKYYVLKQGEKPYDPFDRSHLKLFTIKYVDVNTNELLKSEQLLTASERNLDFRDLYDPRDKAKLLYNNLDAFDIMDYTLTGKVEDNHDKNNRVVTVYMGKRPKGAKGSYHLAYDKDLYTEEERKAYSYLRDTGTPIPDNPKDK

[3] = viability of PTEN-deleted HCT116 cells – cell-based, HCT116 PTEN knockout, dose response (AID 1047); format: functional;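 note: HCT116 colon tumor cells with PTEN knocked out; cells exposed to compound for 60 hours before readout; potency for loss of cell viability measured by luminescence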
[4] = viability of HCT116 lacking mutant beta-catenin – cell-based, human colon tumor, dose response (AID 1045); format: functional;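 note: HCT116 colon tumor cells with beta catenin knocked out; cells exposed to compound for 60 hours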
Streptococcus = experiment: GAS UMAA2166 growth inhibition – luminescence, BacTiterGlo, counter-screen for streptokinase expression inhibitor project, dose response (AID 1915); format: functional, organism-based;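 note: potency for reduction of bacterial viability or growth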
Fatty acid synthase [5] = molecular target: T2, Fatty acid synthase (Homo sapiens, UniProt P49327); experiment: inhibition of human FAS-TE enzyme activity – biochemical, endpoint fluorescence intensity, uHTS hits, dose response (AID 624327); format: functional;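 note: fluorescence from hydrolysis of an O-methyl fluorescein acyl ester substrate by the enzyme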
Fatty acid synthase [6] = molecular target: T2, Fatty acid synthase; experiment: inhibition of human FAS-TE enzyme activity – biochemical, kinetic fluorescence intensity, dose response (AID 624326); format: functional;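 note: rate of fluorescence rise from hydrolysis of a fluorogenic O-methyl fluorescein ester substrate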
[7] = molecular target: T3, Heat shock factor protein 1 (Mus musculus, UniProt P38532); experiment: enhancement of HSF1-driven luciferase signal – cell-based, NIH3T3, luminescence, dose retest, confirmation (AID 435004); format: functional;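 note: stress induced by proteasome inhibitor MG132 added 30 min after compound; luciferase reporter driven by HSF1 response element in NIH3T3 cells; actives raise luminescence as potentiators of the MG132 stress response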
T3 sequence (P38532 whole entry): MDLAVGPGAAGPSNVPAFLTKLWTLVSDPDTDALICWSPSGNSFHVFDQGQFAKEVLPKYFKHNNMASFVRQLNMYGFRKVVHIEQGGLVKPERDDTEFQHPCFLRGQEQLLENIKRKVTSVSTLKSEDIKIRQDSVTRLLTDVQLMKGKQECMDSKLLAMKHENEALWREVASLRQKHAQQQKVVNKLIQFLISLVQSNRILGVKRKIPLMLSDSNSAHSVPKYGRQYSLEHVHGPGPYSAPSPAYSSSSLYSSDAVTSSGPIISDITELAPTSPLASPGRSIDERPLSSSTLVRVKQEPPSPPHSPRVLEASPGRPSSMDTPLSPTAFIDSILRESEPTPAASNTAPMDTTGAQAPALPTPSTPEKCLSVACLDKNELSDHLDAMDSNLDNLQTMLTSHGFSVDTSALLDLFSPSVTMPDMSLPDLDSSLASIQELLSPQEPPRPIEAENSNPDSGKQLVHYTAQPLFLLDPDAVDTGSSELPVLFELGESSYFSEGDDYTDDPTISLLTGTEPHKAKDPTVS

Cytochrome P450 3A4 = Cytochrome P450 3A4 (Homo sapiens, UniProt P08684);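 note: CYP3A4 tested as one member of a cytochrome P450 panel screen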
Cytochrome P450 2C9 = Cytochrome P450 2C9 (Homo sapiens, UniProt P11712)
[8] = molecular target: T4, Carboxy-terminal domain RNA polymerase II polypeptide A small phosphatase 1 (Homo sapiens, UniProt Q9GZU7); experiment: CTDSP1 inhibitors, concentration-response, biochemical, absorbance readout, ultra-high-throughput screen actives (AID 540297); format: functional
T4 sequence (Q9GZU7 whole entry): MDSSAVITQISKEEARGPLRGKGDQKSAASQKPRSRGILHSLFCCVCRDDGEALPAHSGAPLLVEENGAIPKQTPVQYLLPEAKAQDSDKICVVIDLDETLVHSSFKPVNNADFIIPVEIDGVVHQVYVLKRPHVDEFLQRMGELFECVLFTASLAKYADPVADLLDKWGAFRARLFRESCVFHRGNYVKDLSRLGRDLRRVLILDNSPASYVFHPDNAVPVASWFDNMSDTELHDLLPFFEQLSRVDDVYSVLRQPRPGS

Protein skinhead-1 = molecular target: T5, Protein skinhead-1 (Caenorhabditis elegans, UniProt P34707); format: functional
T5 sequence (P34707 whole entry): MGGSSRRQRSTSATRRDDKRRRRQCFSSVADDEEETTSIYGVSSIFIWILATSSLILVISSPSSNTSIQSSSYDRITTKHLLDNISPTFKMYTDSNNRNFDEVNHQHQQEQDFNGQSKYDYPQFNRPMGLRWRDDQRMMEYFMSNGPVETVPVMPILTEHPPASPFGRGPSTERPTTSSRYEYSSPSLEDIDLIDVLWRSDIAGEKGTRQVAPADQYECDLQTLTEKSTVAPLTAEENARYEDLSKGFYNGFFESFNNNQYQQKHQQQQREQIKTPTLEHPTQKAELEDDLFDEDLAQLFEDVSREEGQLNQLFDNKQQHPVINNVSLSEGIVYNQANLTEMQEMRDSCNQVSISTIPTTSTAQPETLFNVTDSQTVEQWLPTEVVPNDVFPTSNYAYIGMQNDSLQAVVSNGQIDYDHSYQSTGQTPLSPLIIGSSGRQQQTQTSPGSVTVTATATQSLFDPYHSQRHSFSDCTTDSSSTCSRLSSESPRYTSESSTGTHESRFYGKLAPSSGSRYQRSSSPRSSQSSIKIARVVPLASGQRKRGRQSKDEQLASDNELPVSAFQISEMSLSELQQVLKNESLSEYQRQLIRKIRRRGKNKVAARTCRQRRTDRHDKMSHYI

Cytochrome P450 1A2 = molecular target: T6, Cytochrome P450 1A2 (Homo sapiens, UniProt P05177);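 note: PubChem cytochrome P450 panel assay, CYP1A2 panel member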
T6 sequence (P05177 whole entry): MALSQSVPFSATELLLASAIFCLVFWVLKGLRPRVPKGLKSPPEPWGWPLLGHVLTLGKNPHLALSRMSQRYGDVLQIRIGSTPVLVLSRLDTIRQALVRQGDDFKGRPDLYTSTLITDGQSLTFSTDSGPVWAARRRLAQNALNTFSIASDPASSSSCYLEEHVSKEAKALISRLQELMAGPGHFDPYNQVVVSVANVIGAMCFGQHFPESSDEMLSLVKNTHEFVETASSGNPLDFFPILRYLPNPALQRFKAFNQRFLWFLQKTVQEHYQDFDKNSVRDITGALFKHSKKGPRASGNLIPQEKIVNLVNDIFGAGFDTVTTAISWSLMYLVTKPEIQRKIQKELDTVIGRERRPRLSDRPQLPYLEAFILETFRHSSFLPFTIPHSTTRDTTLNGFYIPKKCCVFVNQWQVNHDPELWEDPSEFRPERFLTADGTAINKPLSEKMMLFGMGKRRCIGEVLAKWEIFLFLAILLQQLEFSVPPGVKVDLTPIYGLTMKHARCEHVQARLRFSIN

[9] = Trypanosoma cruzi growth suppression in host cells – NIH3T3 host cells, beta-gal luminescence, confirmation (AID 2044); format: functional, cell-based;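 note: intracellular parasites grown in NIH/3T3 mouse fibroblasts as host cells; luminescent beta-galactosidase reporter signal from transgenic T. cruzi replicating inside host cells; inhibitors lower the luminescence signal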
[10] = NIH3T3 cell viability loss – ATP luminescence, mouse fibroblasts, counter-screen, dose response (AID 2010); format: functional, cell-based;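 note: cells exposed to compound for about 90 hours before reading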
Vero = experiment: cells; format: functional; settings: Chlorocebus sabaeus
[11] = viability loss in THP-1 monocytes – THP-1 cells, cytotoxicity control for Vif-APOBEC3G degradation inhibitor project, dose response (AID 1117359); format: functional; settings: THP-1
[12] = molecular target: T7, Corticotropin-releasing factor receptor 2/Corticotropin-releasing factor-binding protein (Homo sapiens, UniProt P24387+Q13324); experiment: Dose Response confirmation of uHTS hits for small molecule antagonists of the CRF-binding protein and CRF-R2 receptor complex.; format: functional; settings: read-out: IC50_Mean
T7 sequence (Q13324 whole entry): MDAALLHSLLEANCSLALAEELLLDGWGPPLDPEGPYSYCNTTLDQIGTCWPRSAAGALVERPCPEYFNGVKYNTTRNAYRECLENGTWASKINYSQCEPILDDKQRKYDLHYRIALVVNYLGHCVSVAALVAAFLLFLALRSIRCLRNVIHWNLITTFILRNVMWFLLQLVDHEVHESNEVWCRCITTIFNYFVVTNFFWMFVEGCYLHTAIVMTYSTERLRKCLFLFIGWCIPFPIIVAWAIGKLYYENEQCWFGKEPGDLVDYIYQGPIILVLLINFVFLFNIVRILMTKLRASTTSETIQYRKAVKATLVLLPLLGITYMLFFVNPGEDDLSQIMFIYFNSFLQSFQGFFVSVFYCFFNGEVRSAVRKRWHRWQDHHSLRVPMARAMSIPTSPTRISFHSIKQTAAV
T7 sequence (P24387 whole entry): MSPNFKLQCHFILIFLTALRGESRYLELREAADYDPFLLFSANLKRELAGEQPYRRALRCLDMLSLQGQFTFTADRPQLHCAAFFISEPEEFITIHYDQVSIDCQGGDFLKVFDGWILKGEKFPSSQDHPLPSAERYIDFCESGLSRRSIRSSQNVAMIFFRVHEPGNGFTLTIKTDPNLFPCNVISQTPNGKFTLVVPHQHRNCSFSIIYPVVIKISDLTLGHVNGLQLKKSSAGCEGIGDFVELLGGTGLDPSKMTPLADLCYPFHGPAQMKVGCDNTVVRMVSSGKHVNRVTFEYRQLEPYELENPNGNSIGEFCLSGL

[13] = molecular target: T7, Corticotropin-releasing factor receptor 2/Corticotropin-releasing factor-binding protein; experiment: activators of CRF receptor 2 with binding protein – uHTS hits, confirmation (AID 602473); format: functional; settings: read-out: EC50_Mean
[14] = molecular target: Induced myeloid leukemia cell differentiation protein Mcl-1 (Homo sapiens, UniProt Q07820); format: functional
[15] = Luminescence Cell-Based Dose Retest to Confirm Inhibitors of Cancer Stem Cells. [Related pubchem assays (depositor defined):AID2717, AID2721]; format: functional; settings: Homo sapiens

T2 sequence (P49327 whole entry): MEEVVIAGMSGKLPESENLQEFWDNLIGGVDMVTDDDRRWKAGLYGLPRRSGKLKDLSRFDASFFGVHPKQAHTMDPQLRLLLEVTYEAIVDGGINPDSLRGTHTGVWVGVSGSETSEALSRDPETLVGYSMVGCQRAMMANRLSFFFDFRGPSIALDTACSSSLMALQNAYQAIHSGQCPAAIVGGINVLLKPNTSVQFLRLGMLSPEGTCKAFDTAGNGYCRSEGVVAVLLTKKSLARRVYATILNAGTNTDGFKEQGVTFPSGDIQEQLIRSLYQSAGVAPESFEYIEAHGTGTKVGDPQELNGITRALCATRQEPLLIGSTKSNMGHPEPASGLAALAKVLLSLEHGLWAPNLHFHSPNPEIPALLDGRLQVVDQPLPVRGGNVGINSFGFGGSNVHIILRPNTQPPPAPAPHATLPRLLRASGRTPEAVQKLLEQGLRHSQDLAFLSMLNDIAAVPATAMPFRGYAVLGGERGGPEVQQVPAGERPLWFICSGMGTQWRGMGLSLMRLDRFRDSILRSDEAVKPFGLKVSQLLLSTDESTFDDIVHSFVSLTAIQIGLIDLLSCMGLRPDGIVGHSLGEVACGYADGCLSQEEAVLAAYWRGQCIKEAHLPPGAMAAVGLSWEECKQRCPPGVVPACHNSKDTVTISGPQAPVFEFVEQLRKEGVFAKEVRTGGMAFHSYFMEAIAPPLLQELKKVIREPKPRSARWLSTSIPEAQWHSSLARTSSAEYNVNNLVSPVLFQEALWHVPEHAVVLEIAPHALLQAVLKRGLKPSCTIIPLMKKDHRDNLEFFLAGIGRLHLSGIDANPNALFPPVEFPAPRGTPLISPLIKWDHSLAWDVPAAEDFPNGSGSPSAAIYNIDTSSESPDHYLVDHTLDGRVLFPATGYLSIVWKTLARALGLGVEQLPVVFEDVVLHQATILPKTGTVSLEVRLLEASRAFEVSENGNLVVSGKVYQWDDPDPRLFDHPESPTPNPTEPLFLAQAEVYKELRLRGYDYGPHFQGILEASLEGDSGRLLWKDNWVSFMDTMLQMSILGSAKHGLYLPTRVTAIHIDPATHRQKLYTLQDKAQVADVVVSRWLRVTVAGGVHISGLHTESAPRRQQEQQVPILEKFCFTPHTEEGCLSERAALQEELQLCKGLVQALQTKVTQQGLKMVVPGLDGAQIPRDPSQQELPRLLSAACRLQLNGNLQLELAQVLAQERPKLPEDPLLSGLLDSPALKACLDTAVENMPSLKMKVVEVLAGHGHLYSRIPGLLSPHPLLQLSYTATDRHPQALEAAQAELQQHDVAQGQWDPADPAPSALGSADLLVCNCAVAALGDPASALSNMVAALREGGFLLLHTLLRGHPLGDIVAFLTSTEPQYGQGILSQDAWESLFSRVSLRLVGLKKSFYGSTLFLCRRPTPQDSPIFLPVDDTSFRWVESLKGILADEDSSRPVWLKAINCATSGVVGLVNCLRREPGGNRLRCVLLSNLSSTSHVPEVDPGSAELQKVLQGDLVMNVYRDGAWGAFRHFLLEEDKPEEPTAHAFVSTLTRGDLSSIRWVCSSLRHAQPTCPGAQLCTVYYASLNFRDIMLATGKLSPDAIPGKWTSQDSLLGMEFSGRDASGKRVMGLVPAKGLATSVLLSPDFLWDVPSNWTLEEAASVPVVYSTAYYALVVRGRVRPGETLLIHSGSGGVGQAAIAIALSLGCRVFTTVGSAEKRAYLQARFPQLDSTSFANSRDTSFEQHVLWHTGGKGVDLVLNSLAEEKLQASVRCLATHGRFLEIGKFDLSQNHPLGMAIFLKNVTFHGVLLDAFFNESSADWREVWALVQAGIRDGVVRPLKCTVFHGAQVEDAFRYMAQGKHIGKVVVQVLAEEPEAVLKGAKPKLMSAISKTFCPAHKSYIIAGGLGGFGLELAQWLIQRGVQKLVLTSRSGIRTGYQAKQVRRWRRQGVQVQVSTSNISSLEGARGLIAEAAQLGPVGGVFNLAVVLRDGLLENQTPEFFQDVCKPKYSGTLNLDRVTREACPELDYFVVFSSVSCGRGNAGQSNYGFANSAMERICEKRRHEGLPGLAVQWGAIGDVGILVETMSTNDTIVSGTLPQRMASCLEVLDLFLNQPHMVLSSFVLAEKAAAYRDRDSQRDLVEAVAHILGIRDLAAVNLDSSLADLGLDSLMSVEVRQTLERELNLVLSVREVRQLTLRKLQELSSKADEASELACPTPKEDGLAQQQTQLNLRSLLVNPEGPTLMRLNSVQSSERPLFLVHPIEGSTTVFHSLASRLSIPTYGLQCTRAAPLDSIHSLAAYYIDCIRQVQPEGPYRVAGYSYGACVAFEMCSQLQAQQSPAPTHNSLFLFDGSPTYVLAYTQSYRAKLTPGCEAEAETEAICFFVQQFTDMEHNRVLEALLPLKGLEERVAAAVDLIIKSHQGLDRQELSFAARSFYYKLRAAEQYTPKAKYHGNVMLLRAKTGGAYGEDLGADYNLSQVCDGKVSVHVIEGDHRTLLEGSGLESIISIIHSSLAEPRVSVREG
Cytochrome P450 2C9, sequence (P11712 whole entry, the tested form may be a part): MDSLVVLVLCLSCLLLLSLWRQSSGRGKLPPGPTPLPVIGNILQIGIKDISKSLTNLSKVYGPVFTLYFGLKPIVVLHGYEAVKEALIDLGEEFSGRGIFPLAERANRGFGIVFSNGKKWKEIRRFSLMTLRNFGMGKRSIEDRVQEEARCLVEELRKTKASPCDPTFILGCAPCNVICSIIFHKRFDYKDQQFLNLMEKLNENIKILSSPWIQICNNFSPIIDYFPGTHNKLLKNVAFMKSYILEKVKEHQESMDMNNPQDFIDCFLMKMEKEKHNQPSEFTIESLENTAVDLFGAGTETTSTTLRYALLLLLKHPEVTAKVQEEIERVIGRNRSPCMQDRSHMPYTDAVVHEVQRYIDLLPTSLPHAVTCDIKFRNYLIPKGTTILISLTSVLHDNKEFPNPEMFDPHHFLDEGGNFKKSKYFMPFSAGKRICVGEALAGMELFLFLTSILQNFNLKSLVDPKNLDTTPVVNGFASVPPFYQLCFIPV
Induced myeloid leukemia cell differentiation protein Mcl-1, sequence (Q07820 whole entry): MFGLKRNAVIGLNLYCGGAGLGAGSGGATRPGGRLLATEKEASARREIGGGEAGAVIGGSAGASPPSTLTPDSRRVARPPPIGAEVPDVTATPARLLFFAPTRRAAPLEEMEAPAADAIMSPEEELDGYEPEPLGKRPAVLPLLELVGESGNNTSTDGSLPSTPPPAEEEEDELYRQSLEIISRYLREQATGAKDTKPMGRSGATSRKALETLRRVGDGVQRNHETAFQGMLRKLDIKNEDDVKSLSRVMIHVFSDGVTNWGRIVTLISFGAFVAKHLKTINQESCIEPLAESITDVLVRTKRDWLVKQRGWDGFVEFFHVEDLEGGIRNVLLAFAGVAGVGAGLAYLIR
Cytochrome P450 3A4, sequence (P08684 whole entry): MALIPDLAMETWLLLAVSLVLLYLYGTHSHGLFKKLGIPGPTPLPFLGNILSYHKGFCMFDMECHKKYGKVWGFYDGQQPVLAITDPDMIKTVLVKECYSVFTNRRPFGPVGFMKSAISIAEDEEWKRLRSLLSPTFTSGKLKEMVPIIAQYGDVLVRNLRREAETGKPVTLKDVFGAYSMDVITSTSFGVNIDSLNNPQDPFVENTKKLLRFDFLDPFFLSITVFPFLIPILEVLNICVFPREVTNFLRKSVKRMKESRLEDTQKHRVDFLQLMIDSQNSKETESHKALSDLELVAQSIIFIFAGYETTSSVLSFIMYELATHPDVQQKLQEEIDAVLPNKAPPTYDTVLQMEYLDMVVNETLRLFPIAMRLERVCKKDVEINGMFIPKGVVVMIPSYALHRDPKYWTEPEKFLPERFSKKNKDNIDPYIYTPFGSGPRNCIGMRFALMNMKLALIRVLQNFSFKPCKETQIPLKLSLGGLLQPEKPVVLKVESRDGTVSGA

CCCCOc1ccc(-c2c(C#N)c(N)nc(SCC(N)=O)c2C#N)cc1
CC50 [1]: 19.9 µM (active)
EC50 [2]: 6.77 µM (active)
EC50 (Streptokinase A): > 150 µM (not active)
EC50 [3]: 15.8 µM (active)
EC50 [4]: 21.2 µM (active)
EC50 (Streptococcus): > 150 µM (not active)
IC50 (Fatty acid synthase [5]): 1.12 µM (active)
IC50 (Fatty acid synthase [6]): 0.644 µM (active)

O=C(Oc1ccc(C(=S)N2CCOCC2)cc1Br)c1cc(Cl)ccc1Cl
EC50 [7]: 68.8 µM (active)
AC50 (Cytochrome P450 3A4): 12.6 µM (inconclusive)
AC50 (Cytochrome P450 2C9): inconclusive

Cc1ccc2[nH]c(/C(C#N)=C\c3ccc(Oc4ccc(C(F)(F)F)cc4[N+](=O)[O-])cc3)nc2c1
IC50 [8]: 2.42 µM (active)

COc1ccc(CC(=O)N2CCCC(C)C2)cc1 (stereo not given)
IC50 (Protein skinhead-1): > 100 µM (inactive)

Cc1[nH]n(-c2ccccc2)c(=O)c1CCOC(=O)c1ccc(C(F)(F)F)cc1
AC50 (Cytochrome P450 1A2): 15.8 µM (inconclusive)
AC50 (Cytochrome P450 2C9): inconclusive

COc1ccc2cc3cc(C(=O)N4CCCCCC4)oc3nc2c1
IC50 (Fatty acid synthase [5]): 3.92 µM (active)
IC50 (Fatty acid synthase [6]): 3.37 µM (active)

CC(C)(C)c1ccc2c(c1)OC(C(=O)N/N=C/c1ccc([N+](=O)[O-])o1)CO2 (stereo not given)
EC50 [2]: 5.27 µM (active)
EC50 (Streptokinase A): 5.82 µM (active)
EC50 [9]: 0.102 µM (active)
EC50 [10]: > 60 µM (not active)
EC50 (Streptococcus): 10.3 µM (active)
CC50 (Vero): > 25 µM (active)
IC50 [8]: 5.41 µM (active)

O=C(C1CCN(S(=O)(=O)c2c(Cl)cccc2Cl)CC1)N1CCCC1
IC50 (Protein skinhead-1): > 100 µM (inactive)

O=C(/C=C/c1cccc([N+](=O)[O-])c1)N1CCN(c2ccccc2F)CC1
IC50 (Fatty acid synthase [5]): 11.6 µM (active)
IC50 (Fatty acid synthase [6]): 6.52 µM (active)

Cc1c(Cl)cnc(NC(=O)COC(=O)c2ccc(S(=O)(=O)NCc3ccco3)cc2)c1Cl
IC50 [8]: 8.67 µM (active)

CCc1ccc(N(C2C=CS(=O)(=O)C2)S(=O)(=O)c2ccc(C)cc2)cc1 (stereo not given)
CC50 [11]: > 40 µM (active)

COc1ccc(Cc2nc(-c3ccc(Cl)cc3)no2)cc1
IC50 [12]: > 47.1 µM (inactive)
EC50 [13]: > 53 µM (inactive)
IC50 (Protein skinhead-1): > 100 µM (inactive)

COc1ccc(C2Nc3ccccc3C(=O)N2c2ccc(Cl)cc2)cc1Cn1cc([N+](=O)[O-])cn1 (stereo not given)
CC50 [11]: > 40 µM (active)

CCOC(=O)c1cc2c(=O)n3ccccc3nc2n(Cc2ccco2)/c1=N/C(=O)c1ccc(OC)cc1
IC50 (Fatty acid synthase [5]): 14.6 µM (active)
IC50 (Fatty acid synthase [6]): 80 µM (inactive)

O=c1c2ccccc2sc2ccccc12
IC50 (Protein skinhead-1): 59.3 µM (inactive)

O=C(O)/C(=C/c1ccco1)NC(=O)c1ccccc1
IC50 [8]: 6.04 µM (active)

CCC1CSC(Nc2ccc(C(=O)/C=C/c3cccc(C)c3)cc2)=N1 (stereo not given)
EC50 [9]: 3.06 µM (active)
EC50 [10]: > 60 µM (not active)
IC50 [14]: 1.66 µM (active)
AC50 [15]: 5.77 µM (active)
EC50 [7]: 12.9 µM (active)
CC50 (Vero): > 25 µM (active)
IC50 (Protein skinhead-1): > 100 µM (inactive)

COc1ccc(N(C(=O)CNC(=O)c2ccco2)C(C(=O)NC2CCCCC2)c2cccnc2)cc1 (stereo not given)
IC50 (Protein skinhead-1): > 100 µM (inactive)
